Consider 6 compounds from ChEMBL document CHEMBL6096653, “α-GalCer sp2-iminoglycolipid analogs as CD1d-dependent iNKT modulators: Evaluation of their immunotherapeutic potential in murine models of asthma and autoimmune hepatitis” (Eur J Med Chem, 2025).

The structures appear in SMILES notation. The source made the active and inactive calls. The calls are words filed in the database; no cut-off is given here.

Data set [1] relates to Splenocyte. As to the kind of experiment: Immunostimulatory activity in BALB/c mouse Splenocyte assessed as induction of IL-4 level at 25 uM incubated for 48 hrs by ELISA analysis. Type of data set: functional, cell-based. (An ELISA detects its analyte on a solid surface through an enzyme-linked reagent.)
The test system of data set [2] is iNKT hybridoma DN3A4-1.2 cell. In words: Immunostimulatory activity in mouse iNKT hybridoma DN3A4-1.2 cell assessed as induction of IL-2 level at 10 to 25 uM incubated for 48 hrs by ELISA analysis. The settings on record: dose 10-25 µM. Type of data set: functional, cell-based.
The test system of data set [3] is iNKT hybridoma DN3A4-1.2 cell. As to the kind of experiment: Immunostimulatory activity in mouse iNKT hybridoma DN3A4-1.2 cell assessed as induction of IL-2 secretion at 10 to 25 uM incubated for 48 hrs in presence of alpha-GalCer by ELISA analysis. It is filed as functional, cell-based. The settings on record: dose 10-25 µM.
Data set [4] concerns Splenocyte. In words: Immunostimulatory activity in BALB/c mouse Splenocyte assessed as induction of IFNgamma level at 25 uM incubated for 48 hrs by ELISA analysis. Type of data set: functional, cell-based.
Data set [5] concerns Mus musculus. In words: Immunostimulatory activity in Th1-biased (OT-1) C57BL/6 mouse model transplanted with mouse Splenocyte assessed as increase in OVA-specific CD8+ T cells proliferation at 1 to 400 ug, ip pretreated with compound and ovalbumin for 2 hrs and measured after 2 days by flow cytometry analysis. It is filed as functional, organism-based. The settings on record: dose 1-400 µg, time 50.0 hrs. A general note: In flow cytometry, cells or beads pass a laser one at a time.

The test system of data set [6] is Mus musculus. In words: Anti-inflammatory activity in ConA-induced autoimmune hepatitis C57BL/6 mouse model assessed as reduction in TNF-alpha level in serum at 20 microg/g, ip pretreated with ConA for 18 hrs followed by compound addition and measured after 18 hrs. The settings on record: dose 20.0 µg/g. Type of data set: functional, organism-based.
Data set [7] has as its system Mus musculus. As to the kind of experiment: Anti-inflammatory activity in ConA-induced autoimmune hepatitis C57BL/6 mouse model assessed as reduction in IL-6 level in serum at 20 microg/g, ip pretreated with ConA for 18 hrs followed by compound addition and measured after 18 hrs. The settings on record: dose 20.0 µg/g. Type of data set: functional, organism-based.
Data set [8] deals with Mus musculus. As to the kind of experiment: Immunostimulatory activity in ip dosed Th1-biased (OT-1) C57BL/6 mouse model transplanted with mouse Splenocyte assessed as increase in OVA-specific CD8+ T cells proliferation pretreated with compound and ovalbumin for 2 hrs and measured after 2 days by flow cytometry analysis. It is filed as functional, organism-based. To be noted: dose 400.0 µg, time 50.0 hrs.

The subject of data set [9] is Mus musculus. In words: Anti-asthmatic activity in alpha-Galcer-induced female BALB/c mouse model assessed as inhibition of airway hyperreactivity at 20 microg/g ip measured after 24 hrs. Type of data set: functional, organism-based. To be noted: dose 20.0 µg/g.
A short description of data set [10]: Toxicity in C57BL/6J mouse assessed as decrease in ALT level in serum at 20 microg/g, ip measured after 18 hrs. Type of data set: organism-based. To be noted: in vivo, dose 20 µg/g.
Data set [11] relates to Mus musculus. In words: Immunostimulatory activity in Th1-biased (OT-1) C57BL/6 mouse model transplanted with mouse Splenocyte assessed as increase in OVA-specific CD8+ T cells proliferation at 1 to 400 ug, ip pretreated with compound and ovalbumin for 2 hrs and measured after 3 days by flow cytometry analysis. Type of data set: functional, organism-based. The settings on record: dose 1-400 µg, time 74.0 hrs.

In data set [12] the test system is Splenocyte. As to the kind of experiment: Immunostimulatory activity in Cd1d knockout BALB/c mouse Splenocyte assessed as effect on of IL-4 level at 10 to 25 uM incubated for 48 hrs by ELISA analysis. To be noted: dose 10-25 µM. Type of data set: functional, cell-based.
Data set [13] relates to Splenocyte. As to the kind of experiment: Immunostimulatory activity in Cd1d knockout BALB/c mouse Splenocyte assessed as effect on of IFNgamma level at 10 to 25 uM incubated for 48 hrs by ELISA analysis. Type of data set: functional, cell-based. To be noted: dose 10-25 µM.
In data set [14] the test system is Mus musculus. In words: Anti-asthmatic activity in alpha-Galcer-induced female BALB/c mouse model assessed as reduction in Muc5ac mRNA level in lung at 20 microg/g ip measured after 24 hrs by RT-PCR analysis. Type of data set: functional, organism-based. The settings on record: dose 20.0 µg/g.
In data set [15] the test system is Mus musculus. In words: Anti-asthmatic activity in alpha-Galcer-induced female BALB/c mouse model assessed as reduction in Gob5 mRNA level in lung at 20 microg/g ip measured after 24 hrs by RT-PCR analysis. To be noted: dose 20.0 µg/g. It is filed as functional, organism-based.
Data set [16] deals with Mus musculus. In words: Anti-asthmatic activity in alpha-Galcer-induced female BALB/c mouse model assessed as reduction in TNF-alpha mRNA level in lung at 20 microg/g ip measured after 24 hrs by RT-PCR analysis. Type of data set: functional, organism-based. The settings on record: dose 20.0 µg/g.
The test system of data set [17] is Splenocyte. As to the kind of experiment: Immunostimulatory activity in BALB/c mouse Splenocyte assessed as induction of IL-4 level at 10 to 25 uM incubated for 48 hrs by ELISA analysis. It is filed as functional, cell-based. To be noted: dose 10-25 µM.
In data set [18] the test system is Mus musculus. As to the kind of experiment: Immunostimulatory activity in ip dosed Th1-biased (OT-1) C57BL/6 mouse model transplanted with mouse Splenocyte assessed as increase in OVA-specific CD8+ T cells proliferation pretreated with compound and ovalbumin for 2 hrs and measured after 3 days by flow cytometry analysis. It is filed as functional, organism-based. The settings on record: dose 400.0 µg.

A short description of data set [19]: Toxicity in C57BL/6J mouse assessed as decrease in AST level in serum at 20 microg/g, ip measured after 18 hrs. It is filed as organism-based. To be noted: in vivo, dose 20 µg/g.
Data set [20] concerns Splenocyte. As to the kind of experiment: Immunostimulatory activity in BALB/c mouse Splenocyte assessed as induction of IFNgamma level at 10 to 25 uM incubated for 48 hrs by ELISA analysis. It is filed as functional, cell-based. The settings on record: dose 10-25 µM.
For data set [21], the system named is Mus musculus. In words: Anti-asthmatic activity in alpha-Galcer-induced female BALB/c mouse model assessed as reduction in IL-6 mRNA level in lung at 20 microg/g ip measured after 24 hrs by RT-PCR analysis. Type of data set: functional, organism-based. The settings on record: dose 20.0 µg/g.
Data set [22] in a line: Toxicity in C57BL/6J mouse assessed as liver damage at 20 microg/g, ip measured after 18 hrs by H and E staining based analysis. Type of data set: organism-based. To be noted: in vivo, dose 20 µg/g.
In data set [23] the test system is Splenocyte. In words: Cytotoxicity against mouse Splenocyte assessed as cell viability at 25 uM by AlamarBlue assay. It is filed as toxicity, cell-based. On the technique in general: Resazurin is reduced to fluorescent resorufin, in cell work by metabolically active cells.

For `CCCCCCCCCCCCCCCCCCCCCCCCCC(=O)N[C@@H](CO[C@@H]1[C@H](O)[C@@H](O)[C@H](O)[C@H]2COC(=O)N21)[C@H](O)[C@H](O)CCCCCCCCCCCCCC`, the result (with Splenocyte [1]; in [2]; in the data set with Splenocyte [4]) was inactive. Further, the result in [3] was Active.
For `CCCCCCCCCCCCCC[C@@H](O)[C@@H](O)[C@H](CO[C@@H]1[C@H](O)[C@@H](O)[C@@H](O)[C@H]2COC(=O)N21)n1cc(CCCCCCCC)nn1`, the outcome with Mus musculus [5], in the data set on Mus musculus [6], with Mus musculus [7], in the data set on Mus musculus [9], with Mus musculus [11] and in the data set on Splenocyte [1] was Active. The outcome (in the data set with Mus musculus [14]; in the data set on Mus musculus [15]; in the data set with Mus musculus [16]; in the data set on Splenocyte [17]; in data set [2]; in data set [3]) was Active. Besides, the result with Splenocyte [20], in the data set with Splenocyte [4] and with Mus musculus [21] was Active. Also, the Activity entry was “Dose-dependent-effect” in the data set with Mus musculus [8]; “Non-toxic” in [10]; “Dose-dependent-effect” in the data set with Mus musculus [18]; “Non-toxic” in data set [19]; “Non-toxic” in [22]. In addition, the result in the data set with Splenocyte [12] and in the data set with Splenocyte [13] was inactive.
For the compound `CCCCCCCCCCCCCC[C@@H](O)[C@@H](O)[C@H](CO[C@@H]1[C@H](O)[C@@H](O)[C@@H](O)[C@H]2COC(=O)N21)n1cc(CCCCCCCCCCCC)nn1`, the outcome in the data set on Splenocyte [12], with Splenocyte [13] and in the data set on Splenocyte [4] was inactive. The outcome in the data set on Splenocyte [1] and in the data set on Splenocyte [17] was Active.
In the case of `CCCCCCCCCCCCCC[C@@H](O)[C@@H](O)[C@H](CO[C@@H]1[C@H](O)[C@@H](O)[C@@H](O)[C@H]2COC(=O)N21)n1cc(CCCCCC)nn1`, the outcome in the data set on Splenocyte [12], in the data set on Splenocyte [13] and in the data set with Splenocyte [4] was inactive. Further, the outcome in the data set on Splenocyte [1] and in the data set with Splenocyte [17] was Active. The Activity result in the data set on Splenocyte [23] was “Toxic”.
For `CCCCCCCCCCCCCC[C@@H](O)[C@@H](O)[C@H](CO[C@@H]1[C@H](O)[C@@H](O)[C@@H](O)[C@H]2COC(=O)N21)n1cc(CCCC)nn1`, the result with Splenocyte [4] was inactive.
On to `CCCCCCCCCCCCCCCCCCCCCCCCCC(=O)N[C@@H](CO[C@@H]1[C@H](O)[C@@H](O)[C@@H](O)[C@H]2COC(=O)N21)[C@H](O)[C@H](O)CCCCCCCCCCCCCC`, for which the outcome (with Splenocyte [1]; in [2]; in the data set on Splenocyte [4]) was inactive. Further, the result in data set [3] was Active.
